According to paper PMC4206749 (Toxicological Research, 2014):
Marks after values point to notes of the source that are not given here.

Legend:
[1] = tested on: Salmonella typhimurium strain TA98; assay: Bacterial reverse mutation assay; type: cell-based
[2] = tested on: Salmonella typhimurium strain TA1535; assay: Bacterial reverse mutation assay; type: cell-based
[3] = tested on: Salmonella typhimurium strain TA1537; assay: Bacterial reverse mutation assay; type: cell-based
[4] = tested on: Salmonella typhimurium strain TA100; assay: Bacterial reverse mutation assay; type: cell-based
[5] = tested on: Escherichia coli strain (WP2 uvrA); assay: Bacterial reverse mutation assay; type: cell-based; conditions: E. coli
[6] = tested on: L5178Y Tk^+/− mouse lymphoma cells; assay: In vitro comet assay; type: cell-based; conditions: for % DNA in tail / Olive moment / Tail length / Tail moment: 4 hr; for Comet parameters compared to vehicle: p < 0.05
[7] = tested on: CHL cells (Chinese hamster lung fibroblast cell line); assay: In vitro chromosomal aberration assay; type: cell-based
[8] = tested on: S. typhimurium strain TA100 and TA98, E. coli strain WP2uvrA; conditions: presence and absence of the S9 mix, 0.02~5000 μg per plate; cited from earlier work
[9] = positive control 35 μg/ml with S9 mix
[10] = positive control 10 μg/ml, with metabolic activation, short term treatment
[11] = positive control 15 μg/ml without S9 mix

Nc1ccc2cc3ccccc3cc2c1 [2-AA, 2-aminoanthracene, reference compound]
Number of reverse mutants/plate (Mean ± SD) ([1]; TA98, with S9 activation, positive control 0.5 μg/plate): 232 ± 9 reverse mutants/plate
Number of reverse mutants/plate (Mean ± SD) ([2]; TA1535, with S9 activation, positive control 2.0 μg/plate): 156 ± 6 reverse mutants/plate
Number of reverse mutants/plate (Mean ± SD) ([3]; TA1537, with S9 activation, positive control 2.0 μg/plate): 118 ± 16 reverse mutants/plate
Number of reverse mutants/plate (Mean ± SD) ([4]; TA100, with S9 activation, positive control 1.0 μg/plate): 598 ± 20 reverse mutants/plate
Number of reverse mutants/plate (Mean ± SD) ([5]; with S9 activation, positive control 10 μg/plate): 428 ± 21 reverse mutants/plate

Nc1c2ccccc2nc2ccccc12 [9-AA, 9-aminoacridine, reference compound]
Number of reverse mutants/plate (Mean ± SD) ([3]; TA1537, without S9 activation, positive control 80 μg/plate): 151 ± 11 reverse mutants/plate

NC(=O)C(=Cc1ccc([N+](=O)[O-])o1)c1ccco1 [AF-2, 2-(2-furyl)-3-(5-nitro-2-furyl) acrylamide, reference compound]
Number of reverse mutants/plate (Mean ± SD) ([1]; TA98, without S9 activation, positive control 0.1 μg/plate): 278 ± 20 reverse mutants/plate
Number of reverse mutants/plate (Mean ± SD) ([4]; TA100, without S9 activation, positive control 0.01 μg/plate): 425 ± 23 reverse mutants/plate
Number of reverse mutants/plate (Mean ± SD) ([5]; without S9 activation, positive control 0.01 μg/plate): 334 ± 23 reverse mutants/plate

c1ccc2c(c1)cc1ccc3cccc4ccc2c1c34 [BaP, benzo(A)pryene, reference compound]
% DNA in tail [6, 9]: 49.14 ± 3.29 %
Olive moment [6, 9]: 13.74 ± 1.97 μm
Tail length [6, 9]: 80.29 ± 6.24 μm
Tail moment [6, 9]: 42.15 ± 3.98 μm
Comet parameters compared to vehicle ([6]; positive control with S9 mix): increased significantly

O=P1(N(CCCl)CCCl)NCCCO1 (stereo not shown) [CPA, cyclophosphamide, reference compound]
Total frequency (+) Gap [7, 10]: 132** %
Total frequency (−) Gap [7, 10]: 116** %
Frequency of cells with chromosomal aberration ([7]; positive control, treatment with metabolic activation): > 10%

CO[C@@]12[C@H](COC(N)=O)C3=C(C(=O)C(C)=C(N)C3=O)N1C[C@@H]1N[C@@H]12 [MMC, mitomycin C, reference compound]
Gap ([7]; positive control 0.5 μg/ml, continuous treatment, 200 cells): 8

COS(C)(=O)=O [MMS, methyl methansulfonate, reference compound]
% DNA in tail [6, 11]: 51.29 ± 4.26 %
Olive moment [6, 11]: 14.68 ± 1.01 μm
Tail length [6, 11]: 97.21 ± 6.75 μm
Tail moment [6, 11]: 58.13 ± 6.12 μm
Comet parameters compared to vehicle ([6]; positive control without S9 mix): increased significantly

[N-]=[N+]=[N-].[Na+] [NaN3, sodium azide, reference compound]
Number of reverse mutants/plate (Mean ± SD) ([2]; TA1535, without S9 activation, positive control 0.5 μg/plate): 151 ± 17 reverse mutants/plate

Oc1ccc(/C=C/c2cc(O)cc(O)c2)cc1 [Resveratrol]
Bacterial reverse mutation assay result [8]: negative
